Read-outs that look alike come from different tables or passages of the source.

Data on 2 compounds can be found in patent US6774143B1, “Method for treating cells resistant to antineoplastic agents” (Novartis AG, priority 2003, dated 2004).

The test system of data set [1] is PTX-22 cells. Briefly: Antiproliferative assay (MTS). The format is cell-based, human. Here is the method:
(§1) A549, a human non-small cell lung carcinoma and MDA-MB-435, a human breast carcinoma, used in this study are obtained from the American Type Culture Collection (ATCC, Rockville, Md., USA). MDA-MB-435 cells are maintained in MEM containing 10% FBS, 1% sodium pyruvate, 1% MEM non-essential amino acids, and 15 mM HEPES (pH=7.4). A549 cells are maintained in RPMI 1640 containing 10% FBS. 1A9, a single-cell clone of the human ovarian carcinoma cell line A2780 and PTX22, the paclitaxel-resistant subline, used in this stdy are obtained from M. Wartman (Novartis Pharmauticals). 1A9 cells and PTX22 cells are maintained in RPMI 1640 supplemented with 10% FBS. PTX22 maintenance media also contained 15 ng/mL paclitaxel and 5 μg/mL verapamil. Drug is removed from the media for 5-7 days before use in an experiment. All maintenance media contained 100 units/mL penicillin and 100 μg/mL streptomycin.
Cell lines are trypsinized and counted using a Coulter counter. Cells were plated in 96 well plates (190 μL/well) at the following densities: 1,000 cells/well for A549 and 3,000 cells/well for MDA-MB-435. The number of cells plated results in cell densities of 75-90% confluence by the time of harvest. Plates are seeded on day 0. On day 1 test compounds are added to triplicate wells in a final volume of 10 μL media. Initial cell density for each cell line is measured on day 1 by adding 10 μL MTS mixture (see below), incubating for 4 h and recording absorbance at 490 nm (A490). Two or three days after test compound addition, 10 μL/well of MTS mixture is added to the test plates and A490 was read 4 h later. A490 values for wells containing cells are corrected for media absorbance, then normalized to initial density readings to determine percent net growth. Percent net growth is calculated as (A490+drug−A490 initial)/(A490—drug—A490 initial). Graphs of percent net growth as a function of compound concentration are used to calculate concentrations resulting in 50% growth inhibition (IC50). MTS mixture is prepared fresh on day of addition to cell plates at a ratio of 10 μL of a 0.92 mg/mL solution of phenazine methosulfate (PMS) to 190 μL of a 2 mg/mL solution of MTS (3-(4,5-dimethylthiazol-2-yl)-5-(3-carboxymethoxyphenyl)-2-(4-sulfophenyl)-2H-tetrazolium, inner salt). PMS and MTS solutions are prepared in buffered saline containing 0.2 g/L KCl, 8.0 g/L NaCl, 0.2 g/L KH2PO4, 1.15 g/L Na2HPO4, 133 mg/L CaCl2.2H2O, 100 mg/L MgCl2.6H2O, (pH=7.35) and stored as foil-wrapped aliquots at −20° C. Test compounds are prepared as stock solutions in DMSO. Test compound dilutions are made in 2% DMSO/cell maintenance media and diluted into assay plates to give 0.1% DMSO final in all wells.

A short description of data set [2]: In vivo hollow fiber assay, body weight of the animals. As to conditions: both experiments. Set-up: species or system mice. Here is the method: (§2) Outbred athymic (nu/nu) female mice (“Chrls:Athymic Nude-nu”, Charles River Laboratories, Wilmington, Mass.) are anesthetized with ip injections of Ketamine/Xylazine (150 mg/kg, and 12 mg/kg body weight, respectively). For the subcutaneous implantation an 11-gauge trocar containing one or two hollow fibers is inserted into an incision made with scissors at the nape of the neck of an animal, and fibers are released by retracting the trocar while depressing the plunger. This procedure is repeated until all three hollow fibers are implanted. One wound clip is used to close the skin incision After the surgery each animal receives a single, subcutaneous injection of 0.4 mg/kg butorphenol to relieve any potential pain. Animals recover from the anesthesia on a heating pad, before retuning to their cages.
One day after the implantation (3 hollow fibers/animal, each hollow fiber containing one cell line: LS 174T, 1A9, and 1A9PTX22) animals are randomly sorted into five groups of six mice/group. […]
Discodermolide is isolated from the sponge Discodermia dissoluta using the method of Gunasekera SP (supra). Multiple batches of compound of similar purity (all>95% pure, as determined by mass spectrometry, and nuclear magnetic resonance analysis) are used throughout the various studies. […]

The subject of data set [3] is LS 174T cell line. Briefly: In vivo hollow fiber assay in nude mice. The procedure:
PVDF hollow fibers (Spectrum, Gardena, Calif.) are soaked in 70% EtOH for 72 hours before use. After this step, all handling of fibers are done under a biological laminar flow hood using aseptic procedures. Individual fibers are flushed with 3 mL of the ice-cold tissue culture media using a syringe equipped with a 20-gauge needle. Next, each fiber is filled with an appropriate cell suspension (1×10^6 cells/mL for the 1A9 and 1A9PTX22 cells, and 0.5×10^6 cells/mL for the LS 174T cells), and both ends of the fiber are sealed with a hot flat needle holder. The entire length of the fiber is then sealed into 1.5 cm microcapsules (further called “hollow fibers”), each containing approximately 15 uL of the appropriate cell suspension. After separation, individual hollow fibers are placed in 6 well plates (6 fibers in 5 mL media per well), and are incubated overnight at 37° C. in the tissue culture incubator.
as §2
One day after the implantation (3 hollow fibers/animal, each hollow fiber containing one cell line: LS 174T, 1A9, and 1A9PTX22) animals are randomly sorted into five groups of six mice/group. The first group is sacrificed; hollow fibers are retrieved, and processed according to a published procedure (Hollingshead M G, et al. Life Sciences 1995, 57(2):131-141), to determine the number of viable cells in each fiber (T0.)
On day 6 all animals are sacrificed, and hollow fibers are retrieved, and processed according to Hollingshead, M G, (supra) to determine the number of viable cells in each fiber (T—for fibers from animals treated with experimental compounds, C—for fibers from animals treated with corresponding vehicles). Antitumor activity is expressed as % Mean ΔT/Mean ΔC [comparing cell growth for treatment group to vehicle control group, where % Mean ΔT/Mean ΔC=(Mean T—Mean T0/Mean C—Mean T0)×100%]. Regressions are calculated using the formula: (1−Mean T/Mean T0)×100%. Statistical significance of the results is uniformly evaluated using a two-tailed Student's t-test.
Discodermolide is isolated from the sponge Discodermia dissoluta using the method of Gunasekera SP (supra). Multiple batches of compound of similar purity (all>95% pure, as determined by mass spectrometry, and nuclear magnetic resonance analysis) are used throughout the various studies. For the in vitro cytotoxicity assays all compounds are dissolved in DMSO and are added to the plates with cells to obtain desired concentrations. […] Paclitaxel is purchased from Sigma/Aldrich, (St. Louis, Mo.). For the in vivo hollow fiber assay, solid discodermolide is dissolved in pure ethanol to create a stock solution which is diluted just before dosing with Cremophor EL and D5W to a final concentration of 16.7% Cremophor EL, 8.3% ethanol and 75% D5W. The compound is administered to mice as a single, 15 mg/kg iv injection. Positive control animals receive clinical formulations of paclitaxel (TAXOL) diluted 4-fold with D5W (12.5% Cremophor El, 12.5% ethanol and 75% D5W final concentrations) and administered iv, at 15 mg/kg, once daily for five consecutive days. Vehicle controls are administered according to the corresponding drug schedules.

Data set [4] deals with 1A9 cells. Briefly: Antiproliferative assay (MTS). The format is cell-based. As to conditions: Homo sapiens, 1A9, 72 h, single value given. Here is the method:
as §1, with “All maintenance media contained 100 units/mL penicillin and 100 μg/mL streptomycin.” left out
Cell lines are trypsinized and counted using a Coulter counter. […] Initial cell density for each cell line is measured on day 1 by adding 10 μL MTS mixture (see below), incubating for 4 h and recording absorbance at 490 nm (A490). Two or three days after test compound addition, 10 μL/well of MTS mixture is added to the test plates and A490 was read 4 h later. A490 values for wells containing cells are corrected for media absorbance, then normalized to initial density readings to determine percent net growth. Percent net growth is calculated as (A490+drug−A490 initial)/(A490—drug—A490 initial). […]

A word on the T/C: it is the ratio of treated to control. As for `C=C/C=C\[C@H](C)[C@H](OC(N)=O)[C@@H](C)[C@H](O)[C@@H](C)C/C(C)=C\[C@H](C)[C@@H](O)[C@@H](C)/C=C\[C@@H](O)C[C@@H]1OC(=O)[C@H](C)[C@@H](O)[C@H]1C` [discodermolide, (+)-Discodermolide], the IC50 in data set [1] (Homo sapiens, 72 h, read-out: 72 hour IC50, PTX-22 cells, single value given) came out at 30 nM; in data set [1] (Homo sapiens, 72 h, read-out: IC50 cell proliferation, PTX-22 cells, 72 h exposure, two independent experiments), 23 nM; in data set [1] (read-out: IC50 cell proliferation, PTX-22 cells, 72 h exposure, two independent experiments), 37 nM; in data set [4] (read-out: 72 hour IC50, 1A9 cells) it was 25 nM. The body weight lost in data set [2] (discodermolide single 15 mg/kg iv) is given as 10%. Also, the T/C in data set [3] (first experiment, discodermolide single 15 mg/kg iv) is given as 7%; in data set [3] (second experiment, discodermolide single 15 mg/kg iv) it was 13%.
For `CC(=O)O[C@H]1C(=O)[C@@]2(C)[C@H]([C@H](OC(=O)c3ccccc3)[C@]3(O)C[C@H](OC(=O)[C@H](O)[C@@H](NC(=O)c4ccccc4)c4ccccc4)C(C)=C1C3(C)C)[C@]1(OC(C)=O)CO[C@@H]1C[C@@H]2O` [paclitaxel, reference compound], the IC50 came out at 80 nM in data set [1] (Homo sapiens, 72 h, PTX-22 cells, single value given, read-out: 72 hour IC50) and 6 nM in data set [4] (1A9 cells, read-out: 72 hour IC50). Further, in data set [1] (from the 72 hour IC50 values), the “fold less sensitive, PTX-22 versus 1A9” value is on record as 13 fold. The compound further came in with a body weight lost in data set [2] (paclitaxel iv 15 mg/kg once daily for 5 days) of 5%. For the same compound, the T/C came to 3% in data set [3] (first experiment, paclitaxel iv 15 mg/kg once daily for 5 days) and 8% in data set [3] (second experiment, paclitaxel iv 15 mg/kg once daily for 5 days).
